Laboratory results: PubChem BioAssay (NCI)
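48-hour exposure; five concentrations; linearly interpolated endpoints. At the GI50, growth is halved. At the TGI there is no net growth.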

Key:
Test in all cases: NCI-60 cell line screen, 48 h
[1] = system: ACHN renal
[2] = system: HCT-15 colon
[3] = system: HOP-92 NSCLC
[4] = system: NCI-H23 lung
[5] = system: OVCAR-5 ovarian
[6] = system: PC-3 prostate
[7] = system: SF-295 CNS
[8] = system: SW-620 colon
[9] = system: UACC-62 melanoma
[10] = system: SR leukemia

SMILES	GI50 [1] [µM]	TGI [1] [µM]	GI50 [2] [µM]	TGI [2] [µM]	GI50 [3] [µM]	TGI [3] [µM]	GI50 [4] [µM]	TGI [4] [µM]	GI50 [5] [µM]	TGI [5] [µM]	GI50 [6] [µM]	TGI [6] [µM]	GI50 [7] [µM]	TGI [7] [µM]	GI50 [8] [µM]	TGI [8] [µM]	GI50 [9] [µM]	TGI [9] [µM]	TGI [10] [µM]
Nc1ccccc1C#C/C=C\C#Cc1c(F)c(F)c(F)c(F)c1F	14.5	30.7	15.1	30	19.5	41.4	14.7	32.4	53.4	> 100	16.6	43.3	20.3	46.6	18.7	42	12.5	26	
S=C=NCCc1ccccc1		3		1.12				1.31		2.96				3.47		1.08		2.52	86.9
N#Cc1ccc2cc3c(cc2c1)OCO3		> 100		> 100		> 100		> 100		> 100				> 100				> 100	
Cc1cn(-c2ccc(S(C)(=O)=O)cc2)c(-c2ccc(Cl)cc2)n1	> 100	> 100	> 100	> 100	> 100	> 100	> 100	> 100	> 100	> 100	> 100	> 100	> 100	> 100	> 100	> 100	> 100	> 100	
C#CCN(C(=O)C(F)(F)F)c1ccc(C(=O)c2ccc(N(CC#C)C(=O)C(F)(F)F)cc2)cc1		> 100		79.9		81		71.6		> 100				> 100		> 100		54.1	
Cc1ccc(NCCN(C)C)c2c(=O)c3ccccc3sc12	1.68	3.53	2.21	6.53	1.04	4.41	1.97	4.75	1.76	3.38	1.97	5.13	1.88	4.46	1.46	3.02	1.69	3.29	
C=C(C)C(=O)O[C@@H]1C/C(C)=C\[C@H](OC(C)=O)C[C@](C)(O)/C=C2/OC(=O)C(COC(C)=O)=C21		1.87		0.786		37.5		5.21		4.55		3.63		23.9		1.93		2.1	
O=c1[nH]c(=O)n(C2CC(O)C(CO)O2)cc1C#Cc1ccc(F)cc1 (stereo not given)		> 100		> 100				> 100		> 100				> 100		> 100		> 100	> 100
COC(=O)/C=c1\s/c(=C\C(=O)OC)c2ccccc12		> 100		> 100		> 100		> 100		> 100				> 100		> 100		> 100	
CCCCCCCC(=O)OCC(=O)[C@]1(O)Cc2c(O)c3c(c(O)c2[C@@H](OC2CC(N)C(O)C(C)O2)C1)C(=O)c1c(OC)cccc1C3=O (stereo not given in full)			0.703	2.14			0.0552	0.526	0.422	1.24			0.0471	1.23	0.0403	1.15	0.033	0.494	
CCOC(=O)/C(=C/c1ccc(N(CCC#N)CCC#N)cc1C)NC(=O)/C=C/c1ccccc1		> 100		> 100				> 100		> 100				> 100		> 100		> 100	
O=C(CC(=O)c1cccc(Cl)c1)c1cccc(Cl)c1	2.71	> 100	1.86	> 100	1.95	> 100	1.91	> 100	4.3	> 100	2.41	> 100	1.01	> 100	2.14	> 100	2.82	> 100	
Cc1cc(=O)[nH]c(CNC(=O)c2cccc(C(=O)NCc3cc(=O)[nH]c(C)n3)c2)n1		> 100		> 100		> 100		> 100		> 100				> 100		> 100		> 100	
CCOC(=O)C1([Se]c2ccccc2)CCCC1=O (stereo not given)		43.2		25.9		54.5		33.4		> 100				> 100				35.2	47.5
O=C1C2C3C=C4c5ccccc5N(c5ccccc5)C4(C2C(=O)N1c1ccc(Br)cc1)[C@H]1C(=O)N(c2ccc(Br)cc2)C(=O)[C@@H]31 (stereo not given in full)				> 100		> 100		> 100		> 100				> 100		> 100		> 100	> 100
O=C(c1ccccc1)n1c(-c2ccccc2)cs/c1=N\S(=O)(=O)c1ccc(N2N=C3c4ccccc4CC3C2c2cccs2)cc1 (stereo not given)	43.8	> 100	61.4	> 100	> 100	> 100	13	39.4	34.3	> 100	39.2	> 100	37.1	> 100	58.8	> 100	27.3	87.2	
COc1ccc(C(CC(=O)c2ccccc2)C(C(=O)c2ccccc2)C(c2ccc(OC)cc2)C2C(=O)NC(=S)NC2=O)cc1 (stereo not given)	12.3	50.9	12.9	37.2	3.1	43.1	14.3	46.6	13.9	37.7	5.61	> 100	11.4	42.7	14.3	39.9	13.3	34	
Cc1nc2sccn2c1C(=O)NC(=O)Nc1ccc(Cl)cc1		> 100		> 100		74.3		> 100		> 100				> 100		> 100		> 100	
CC[N+](C)(CC)CC(C)(C)C(=O)/C=C/c1ccc(/C=C/C(=O)C(C)(C)C[N+](C)(CC)CC)cc1		> 100		> 100		> 100		> 100		> 100				> 100		> 100		> 100	
